Data set [1] deals with T1, adrenoceptor alpha 2A (ADRA2A) (Homo sapiens, UniProt P08913).
T1 construct: expressed in transfected cells
T1 sequence (P08913 1-465): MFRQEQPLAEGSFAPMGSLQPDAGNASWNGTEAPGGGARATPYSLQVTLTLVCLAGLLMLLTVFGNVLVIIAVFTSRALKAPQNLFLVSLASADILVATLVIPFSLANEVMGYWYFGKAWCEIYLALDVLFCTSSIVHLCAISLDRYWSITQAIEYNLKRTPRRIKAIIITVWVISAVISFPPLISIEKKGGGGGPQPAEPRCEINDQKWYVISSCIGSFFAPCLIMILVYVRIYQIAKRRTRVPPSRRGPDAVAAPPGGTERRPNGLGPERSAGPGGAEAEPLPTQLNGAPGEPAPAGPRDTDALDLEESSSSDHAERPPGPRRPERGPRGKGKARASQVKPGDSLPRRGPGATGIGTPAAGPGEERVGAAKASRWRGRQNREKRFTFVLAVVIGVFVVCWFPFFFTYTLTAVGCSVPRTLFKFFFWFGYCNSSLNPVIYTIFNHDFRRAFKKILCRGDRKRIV
Kind of data set: ADRA2A agonist assay (cAMP secondary messenger pathway, HitHunter cAMP XS+). In kind it is cell-based. The source says:
Compounds of the present disclosure (e.g., one or more compounds of Formula (1), (II), (III), Table 1 or Table 2) may be tested for activity in receptor binding assays using methods known in the art, to evaluate agonist, antagonist, inverse agonist and other modes of activity. For example compounds of the disclosure may be tested in a adrenoceptor alpha 2A (ADRA2A) Agonist assay as follows:
Cell lines stably expressing non-tagged adrenoceptor alpha 2A (ADRA2A) that signal through cAMP were used. Agonist assays monitored by the activation of ADRA2A via Gi or Gs secondary messenger signaling in a homogenous, non-imaging assay format using a technology called Enzyme Fragment Complementation (EFC) with P-galactosidase (p-Gal) as the functional reporter.
The enzyme is split into two complementary portions: EA for Enzyme Acceptor and ED for Enzyme Donor. ED is fused to cAMP and in the assay competes with cAMP generated by cells for binding to a cAMP-specific antibody. Active P-Gal is formed by complementation of exogenous EA to any unbound ED cAMP. Active enzyme can then convert a chemiluminescent substrate, generating an output signal detectable on a standard microplate reader.
• 1. cAMP assay ADRA2A cell lines were expanded from freezer stocks according to standard procedures. • 2. Cells were seeded in a total volume of 20 μL into white walled, 384 well microplates and incubated at 37° C. for the appropriate time prior to testing • 3. cAMP modulation was determined using the DiscoverX HitHunter cAMP XS+ assay Gs Agonist Format • 1. For agonist determination, cells were incubated with sample to induce response. • 2. Media was aspirated from cells and replaced with 15 μL 2:1 HBSS/10 mM Hepes: cAMP XS+Ab reagent. • 3. Intermediate dilution of sample stocks was performed to generate 4× sample in assay buffer. • 4. 5 μL of 4× sample was added to cells and incubated at 37° C. or room temperature for 30 or 60 minutes. Vehicle concentration was 1%. Gi Agonist Format • 1. For agonist determination, cells were incubated with sample in the presence of EC80 forskolin to induce response. • 2. Media was aspirated from cells and replaced with 15 μL 2:1 HBSS/10 mM Hepes: cAMP XS+Ab reagent. • 3. Intermediate dilution of sample stocks was performed to generate 4× sample in assay buffer containing 4× EC80 forskolin. • 4. 5 μL of 4× sample was added to cells and incubated at 37° C. or room temperature for 30 or 60 minutes. Final assay vehicle concentration was 1% Signal Detection • 1. After appropriate compound incubation, assay signal was generated through incubation with 20 μL cAMP XS+ED/CL lysis cocktail for one hour followed by incubation with 20 μL cAMP XS+EA reagent for three hours at room temperature. • 2. Microplates were read following signal generation with a PerkinElmer Envision™ instrument for chemiluminescent signal detection. Data Analysis • 1. Compound activity was analyzed using CBIS data analysis suite (ChemInnovation, CA) • 2. For Gs agonist mode assays, percentage activity is calculated using the following formula: % Activity=100%×(mean RLU of test sample−mean RLU of vehicle control)/(mean RLU of MAX control−mean RLU of vehicle control). • 3. For Gi agonist mode assays, percentage activity is calculated using the following formula: % Activity=100%×(1−(mean RLU of test sample-mean RLU of MAX control)/(mean RLU of vehicle control-mean RLU of MAX control))

The subject of data set [2] is cryopreserved hepatocytes. Kind of data set: Hepatocyte stability and metabolite profiling, rat. It is filed as in vitro ADME. The following applies: rat hepatocyte samples, 20 and 120 minute. The procedure:
(§1) The objective of this study was to investigate the stability of the test compound, CBG, in human, rat, dog, mouse, monkey and minipig cryopreserved hepatocytes. Follow-on metabolite profiling was performed.
(§2) CBG was incubated up to 2 hr with cryopreserved hepatocytes. Cryopreserved hepatocytes in suspension were added to test compound in supplemented media following pre-incubation to initiate the reaction and the reactions were stopped by organic solvent at the appropriate time points. The termination plates were centrifuged and sample supernatants were analysed using Cyprotex generic LC MS/MS conditions to generate intrinsic clearance values for CBG. Two control compounds for each species were included in the assay and if the values for these compounds were not within the specified limits the results were rejected and the experiment repeated.
(§3) Following the hepatocyte stability assay the samples were 59 tilized for metabolite profiling using suitable high-resolution LC-MS/MS conditions. The 40 and 60 minute human samples, 20 and 120 minute rat samples, 10 and 20 minute dog and monkey samples, 20 and 60 minute mouse samples, and 40 and 120 minute minipig samples were compared against the 0 minute control sample to establish which and how many metabolites were formed. […]
(§4) The areas and percentages reported for the parent and metabolites were calculated using the XIC data. […]

Data set [3] has as its system cryopreserved hepatocytes. Kind of data set: Hepatocyte stability and metabolite profiling, minipig. The following applies: minipig hepatocyte samples, 40 and 120 minute. It is filed as in vitro ADME. As for the experimental part: as §1, §2, §3, §4

For `CCCCCc1cc(O)c(C/C=C(\C)CCC=C(C)C)c(O)c1` [CBG, cannabigerol], in data set [1], the “Curve Bottom” value is given as 17.138, the “Curve Top” value was found to be 167.56 and the Hill was found to be 1.5564. Moreover, in data set [1] (read-out: Max Response), the Emax was found to be 163%. Further, in data set [1] (read-out: RC50 (Result Type EC50)), the EC50 stood at 1340 nM. The “metabolites observed (number)” value in data set [2] is reported as “eight”. In addition, the “metabolites observed (number)” value in data set [3] is given as “four”.

Broadly, the EC50 is the concentration that produces a half-maximal response.

Values taken from patent publication US12433903B2 (priority 2021, dated 2025).
